# Laboratory results: patent publication US20210121418A1, “TREATMENT OF PROTEINURIA” (SYNACT PHARMA APS, priority 2018, published 2021)
# Columns and labels:
# clinical [1] = conditions: male, human, plasma
# [2] = test system: experimental inflammatory arthritis; conditions: in vivo; cited from earlier work
# MC1R = conditions: cited from earlier work
# macrophages = conditions: cited from earlier work
# [3] = Phase I Part IV, 14-day repeated dose, oral suspension (PK and safety); conditions: for C Max (mean +/− SD, N = 9) / C Trough (Mean +/− SD, N = 9): steady conditions
# [4] = test system: Passive Heymann Nephritis; assay: Passive Heymann Nephritis, experiment 1 (ip dosing); type: in vivo, rat; conditions: for FEAlb (fractional albumin excretion) reduced by: 10 mg/kg ip once daily; for proteinuria compared to control rats (vehicle): day 28 and day 42
# Description: Passive Heymann Nephritis was introduced to Male Sprague-Dawley rats by administration of anti-Fx1A serum (PTX-002S, Probetex, San Antonio, Tex., USA) Probetex, lot 169-6H) on study day 0 (1 ml serum) and on study day 7 (0.25 serum) into the jugular vein by slow injection during isoflurane anaesthesia. […] Pharmacological intervention with control compound or test compound was initiated on day 14.
# In one experiment (experiment 1) test compound 1 dissolved in isotonic saline was given once daily by intraperitoneal (ip) injections at a dose of 10 mg/kg (n=12) with animals treated with isotonic saline injections as controls (n=12).
# In experiment 1 twenty-four hours urine collection were performed at three occasions, at day 14 following induction of nephritis, i.e. at the time point where pharmacological intervention was initiated, at day 28 and at day 42 following induction of nephritis. For urine collection the rats were placed in metabolic cages followed by a blood sample for measurement of plasma concentrations of creatinine and albumin. Likewise, the urine concentration of creatinine and albumin were determined and so was the volume of the 24-hours urine production.
# The blood sample was taken from the abdominal vein during pentobarbital (0.2-0.3 mL/rat ip; Dolethal, Vetoquinol via Centravet, Lapalisse, France). The collected blood was transferred into tubes coated with EDTA and centrifuged (10 minutes, 1000 g, 4° C.) for plasma collection. Plasma samples were stored at −80° C. until quantification of creatinine and Albumin.
# Albumin and creatinine in urine and plasma were quantified using a ABX Pentra 400 Clinical Chemistry analyzer (HORIBA).
# Albumin excretion rate was determined as follows:
# 24 hours urine production×concentration of Albumin in urine.
# Fractional Albumin excretion was determined as follows:
# ((Urine concentration of […]×24 hours urine production)/plasma concentration of albumin)/Creatinine Clearance×100
# All data presented as mean±Standard error of mean (SE). Statistical analyses were made by standard unpaired t-test, with p<0.05 considered statistical significant
# peritonitis = conditions: oral; cited from earlier work
# melanocytes = conditions: cited from earlier work
# CYP1A2 = CYP1A2 induction in human hepatocyte; type: in vitro ADME; conditions: 10 μM
# [5] = test system: Passive Heymann Nephritis; assay: Passive Heymann Nephritis, experiment 2 (oral gavage vs ACTH(1-24)); type: in vivo, rat; conditions: 4 weeks treatment
# Description: Passive Heymann Nephritis was introduced to Male Sprague-Dawley rats by administration of anti-Fx1A serum (PTX-002S, Probetex, San Antonio, Tex., USA) Probetex, lot 169-6H) on study day 0 (1 ml serum) and on study day 7 (0.25 serum) into the jugular vein by slow injection during isoflurane anaesthesia. […] In another experiment (experiment 2) test compound 1 was given once daily by oral gavage. […] In this experiment treatment effect of test compound 1 was compared to the effect of ACTH(1-24) as ACTH from the literature has been described to have treatment effects on proteinuria in the applied experimental model. […] Likewise, the urine concentration of creatinine and albumin were determined and so was the volume of the 24-hours urine production. The blood sample was taken from the abdominal vein during pentobarbital (0.2-0.3 mL/rat ip; Dolethal, Vetoquinol via […], France). The collected blood was transferred into tubes coated with EDTA and centrifuged (10 minutes, 1000 g, 4° C.) for plasma collection. Plasma samples were stored at -80° C. until quantification of creatinine and Albumin. […] Statistical analyses were made by standard unpaired t-test, with p<0.05 considered statistical significant
# [6] = Effect of meal timing and apple juice on absorption of the suspension; type: in vivo
# Description: The effect of food intake on the absorption of AP1189 in the current suspension formulation has not been systematically evaluated. However, it has been shown that the plasma profile of the compound, whether the first meal was served 1 hour or 4 hours post-dosing in the fasting state, is very similar.
# MC3R = conditions: cited from earlier work
# [7] = Phase I Part I, single ascending dose, oral suspension (PK and safety)
# clinical [8] = conditions: human, plasma, oral, 200 mg
compound,measurement,setting,value
"NC(N)=N/N=C/C=C/c1cccn1-c1ccccc1[N+](=O)[O-] [AP1189, (E)-N-trans-{3-[1-(2-nitrophenyl)-1H-pyrrol-2-yl]-allylidene}-aminoguanidium acetate]",Vd/F,clinical [1]; oral,556 to 784 L
same,half-life,clinical [1]; oral,~20 h
same,Tmax,clinical [1]; po,1 to 4 h
same,macroscopic and histological parameters of joint disruption,[2],significant reduction of macroscopic and histological parameters of joint disruption
same,ERK1/2 phosphorylation,MC1R,cause ERK1/2 phosphorylation
same,canonical cAMP generation,MC1R,does not induce canonical cAMP generation
same,cytokine release,macrophages,reduce cytokine release
same,"C Max (mean +/− SD, N = 9)",[3]; 50 mg once daily,180 ± 38 ng/mL
same,"C Trough (Mean +/− SD, N = 9)",[3]; 50 mg once daily,46 ± 14 ng/mL
same,"C Max (mean +/− SD, N = 9)",[3]; 100 mg once daily,427 ± 76 ng/mL
same,"C Trough (Mean +/− SD, N = 9)",[3]; 100 mg once daily,100 ± 25 ng/mL
same,exposure at maximum administrated dose above expected therapeutic exposure level,[3]; 200 mg,5 ×
same,exposure based on Cmax vs expected therapeutic range,"[3]; 200 mg, group",≤ 5 ×
same,exposure based on Cmax vs expected therapeutic range,"[3]; 200 mg, individual with the highest exposure",more than 7 ×
same,"C Trough (Mean +/− SD, N = 9)",[3]; 300 mg once daily,186 ± 45 ng/mL
same,severe or serious adverse events,"[3]; 50, 100 or 200 mg once daily, 14 days",No severe AEs nor serious AEs were reported
same,steady state achieved,"[3]; Cohort 1, 50 mg once daily",7 days
same,peak increase compared to cohort 1,"[3]; Cohort 2, 100 mg vs 50 mg",approximately 2 fold
same,subjects with isolated increases in aminotransferases,"[3]; Cohort 3 (200 mg), treated with active",3 subjects
same,time Cmax was reached post dosing,"[3]; Cohort 3, 200 mg once daily",1 to 2 h
same,safety profile,[3]; for 50 mg or 100 mg doses for four weeks,good safety profile
same,TEAEs considered possibly related to the study treatment,"[3]; gastrointestinal, 50 mg and 200 mg dose levels",4 events
same,"QTcF, repeated standard 12 lead safety ECG",[3]; in vivo,No individual QTcF clinically significant values were observed
same,reduction in albumin excretion rate,"[4]; 10 mg/kg ip once daily from day 14, day 28",31±8%
same,reduction in albumin excretion rate,"[4]; 10 mg/kg ip once daily from day 14, day 42",48±10%
same,FEAlb (fractional albumin excretion) reduced by,[4]; day 28,48±5%
same,FEAlb (fractional albumin excretion) reduced by,[4]; day 42,45±11%
same,proteinuria compared to control rats (vehicle),[4],significantly reduces proteinuria
same,proteinuria compared to control rats (vehicle),[4]; listed as test compound 1,significant reduction in proteinuria
same,reduction in albumin excretion rate,[4]; day 482 as printed in FIG. 1 legend,48±10%
same,anti-inflammatory actions in peritonitis,peritonitis,elicits anti-inflammatory actions in peritonitis and accelerated the resolution phase
same,melanogenesis,melanocytes,no melanogenesis was induced
same,CYP1A2 induction,CYP1A2,signal for CYP1A2 induction has been observed
same,GFR (creatinine clearance),[5]; 20 mg/kg oral gavage,3.12 ± 0.14 mL/min
same,fraction albumin excretion (FEAlb),[5]; 20 mg/kg oral gavage,0.045±0.04%
same,fraction albumin excretion (FEAlb),[5]; 40 mg/kg oral gavage,0.35±0.05%
same,absorption with a glass of apple juice immediately after dosing,[6],does not reduce the absorption
same,"plasma profile, first meal 1 hour or 4 hours post-dosing",[6]; dosing in the fasting state,very similar
same,ERK1/2 phosphorylation,MC3R,cause ERK1/2 phosphorylation
same,canonical cAMP generation,MC3R,does not induce canonical cAMP generation
same,"Cmax and AUCs, female compared to male subjects",[7]; 400 mg,slightly increased
same,"apparent volume of distribution, female compared to male",[7]; 400 mg,similar
same,exposure at maximum administrated dose above expected therapeutic exposure level,[7]; 800 mg,more than 10 ×
same,increase of ALT above the normal upper value,[7]; 400-800 mg,up to 1.6
same,TEAEs considered related to the study treatment,[7]; after administration of 200 to 800 mg,21 events
same,apparent clearance,"[7]; female subjects, 400 mg",17.26 L/h
same,"QTcF and other cardiac parameters, 24-hours Holter ECG",[7]; in vivo,No AP1189 associated increases in QTcF
same,changes in vital signs,[7]; in vivo,No treatment-related changes in vital signs
same,frequency of related gastrointestinal TEAEs vs dose,[7]; in vivo,increased with the dose
same,subjects with isolated increases in aminotransferases,"[7]; male subjects on active IMP, 400, 600, 800 mg",4 subjects
same,inter-individual variability for Cmax and AUCs,"[7]; male subjects, 50-800 mg",< 36%
same,severe or serious adverse events,[7]; single doses 15-800 mg,No severe AEs nor serious AEs were reported
same,Cmax,clinical [8],≤ 900 ng/mL
